Measured values reported in publication PMC11374673, “Discovery of isoquinoline sulfonamides as allosteric gyrase inhibitors with activity against fluoroquinolone-resistant bacteria” (Nature Chemistry, 2024).
≈ marks a conversion by molar mass, not a printed value. Where “and” joins values, the source holds several entries; their conditions need not be identical. Equal values may be shown once. Read-outs that look alike come from different tables or passages of the source.

What was measured:
A. baumannii ATCC BAA747 = experiment: MIC by broth microdilution; format: cell-based
Procedure: (§1) MIC was determined by broth microdilution. Single-colony cultures were grown to exponential phase (OD600 of 0.5) aerobically at 37 °C. In case of strains from the Keio collection, 50 µg ml^−1 kanamycin was supplemented to the media to ascertain a homogeneous population. The bacterial suspensions were diluted 100-fold in CAMHB and 50 µl was added to a twofold serial dilution series of test compounds (50 µl per well) in polypropylene 96-well microtitre plates to reach a volume of 100 µl. The plates were sealed with breathable membranes and incubated overnight at 37 °C with constant shaking (600 r.p.m.). The MIC was determined as the lowest concentration at which no visible bacterial growth was observed as compared with the inoculum controls from the median of a minimum of triplicates.

P. aeruginosa ATCC 27853 = experiment: MIC by broth microdilution; format: cell-based
Procedure: as §1

[1] = test system: S. aureus ATCC 29213 / ATCC BAA1717; experiment: MIC by broth microdilution; format: cell-based
Procedure: as §1

[2] = test system: E. coli W3110 gyrA S97L, S83L, D87N; experiment: MIC against CRISPR/Cas9 gyrA point mutants; format: cell-based, Escherichia coli; details: for MIC: Escherichia coli; for susceptibility of gyrA S97L mutant: CRISPR–Cas9 S97L
Procedure: as §1
Mutants of the DNA gyrase subunit A encoding gene (gyrA) were constructed following the protocol for gene editing via the CRISPR–Cas9 system. Strains and plasmids used are listed in Supplementary Table 15, and primers used can be found in Supplementary Table 16. The following mutations were created: S97L in E. coli W3110. Two common mutations in the gyrA gene that give resistance to fluoroquinolone antibiotics were created in E. coli W3110, namely S83L and D87N. To create the gyrA (S97L) mutants, the construct psgRNA-gyrA-M5 was assembled as follows: The 20-nt spacer sequence was introduced by PCR on pTargetF using primers gyrA_P11 and gyrA_P12, the homology-directed repair (HDR) arms were amplified from E. coli W3110 genomic DNA by PCR using primer pairs gyrA_P05 and gyrA_P013, and gyrA_P08 and gyrA_P14. The three PCR fragments generated were cloned into the SpeI and BglII digested pTargetF via Gibson assembly. To avoid off-target effects of CRISPR, besides desired point mutation for gyrA (S97L), four other silent point mutations were also included in the HDR template. Consequently, the amino acid sequence of gyrA will remain the same in the generated mutant except for the desired mutation. Similarly, constructs psgRNA-gyrA-S83L and psgRNA-gyrA-D87N were created to introduce mutations S83L and D87N in gyrA, respectively. In psgRNA-gyrA-S83L, spacer sequence was introduced using primers gyrA_P12 and gyrA_P17, HDR template was amplified using primer pairs gyrA_P05 and gyrA_P18, and gyrA_P08 and gyrA_P19. In psgRNA-gyrA-D87N, spacer sequence was introduced using primers gyrA_P12 and gyrA_P20, HDR template was amplified using primer pairs gyrA_P05 and gyrA_P21, and gyrA_P08 and gyrA_P22. The verified constructs for gyrA engineering were transformed into E. coli W3110 carrying pCas9, and plated in LB containing kanamycin (50 µg ml^−1) for the selection of the pCas9 plasmid and spectinomycin (100 µg ml^−1) for the selection of psgRNA-gyrA-X. The plates were incubated at 30 °C. Plasmids were cured by growing the strains with 0.5 mM isopropylthiogalactoside with no antibiotics to lose first the psgRNA-gyrA plasmids. After losing the spectinomycin resistance, the strain was grown in LB with no antibiotics at 42 °C to lose the pCas plasmid. Colony PCR was performed on plasmid-free colonies using primers gyrA_P9 and gyrA_P10, and PCR products were sequenced to confirm the desired mutation

E. coli ATCC 25922 = experiment: MIC by broth microdilution; format: cell-based
Procedure: as §1, with “r.p.m.).” for “r.p.m.). The MIC was determined as the lowest concentration at which no visible bacterial growth was observed as compared with the inoculum controls from the median of a minimum of triplicates.”

[3] = test system: 60-resistant (60-r) isolates of E. coli W3110; experiment: microbe, parasite or virus in culture; format: cell-based, Escherichia coli; details: for MIC: Escherichia coli
Procedure: as §1
The plates were incubated at 37 °C and checked for growth after 24 and 48 h. […] Nine colonies with an increased MIC were selected for further analysis and stored as glycerol stocks.

[4] = test system: E. coli BW25113 and single-gene knockouts; experiment: MIC on E. coli strains of the Keio collection; format: cell-based, Escherichia coli; details: for MIC: Escherichia coli
Procedure: as §1

[5] = E. coli W3110 gyrA D87N (FQ-resistant 2)
[6] = E. coli W3110 gyrA S83L (FQ-resistant 1)
[7] = E. coli W3110 gyrA S97L (LEI-800-resistant)
[8] = Escherichia coli, ATCC25922, read-out: MIC E. coli ATCC 25922
[9] = BW25113, JW3596 ΔrfaC, LPS disruption (genetic)
[10] = BW25113, read-out: MIC E. coli BW25113, parent strain
[11] = Acinetobacter baumannii, ATCCBAA747; read-out: MIC A. baumannii ATCC BAA747
[12] = Pseudomonas aeruginosa, ATCC27853; read-out: MIC P. aeruginosa ATCC 27853
[13] = Staphylococcus aureus; read-out: MIC S. aureus ATCC 29213
[14] = Staphylococcus aureus; read-out: MIC S. aureus ATCC BAA1717
[15] = Escherichia coli, ATCC25922; read-out: MIC E. coli ATCC 25922

O=C(O)c1cn(C2CC2)c2cc(N3CCNCC3)c(F)cc2c1=O [CIP, ciprofloxacin]
MIC (A. baumannii ATCC BAA747; Acinetobacter baumannii, ATCCBAA747, read-out: MIC A. baumannii ATCC BAA747): 0.755 µM (≈ 0.25 µg/mL) | MIC (P. aeruginosa ATCC 27853; Pseudomonas aeruginosa, ATCC27853, read-out: MIC P. aeruginosa ATCC 27853): 0.377 µM (≈ 0.125 µg/mL) | MIC ([1]; Staphylococcus aureus, read-out: MIC S. aureus ATCC 29213): 0.755 µM (≈ 0.25 µg/mL) | MIC ([1]; Staphylococcus aureus, read-out: MIC S. aureus ATCC BAA1717): > 0.755 µM | MIC [2, 5]: > 1.5 µM | MIC [2, 6]: > 1.5 µM | MIC [2, 7]: 0.024 µM (≈ 0.00795 µg/mL) | MIC (E. coli ATCC 25922; [8]): 0.024 µM (≈ 0.00795 µg/mL) | MIC ([3]; E. coli W3110 60-r1): 0.024 µM and 0.0078 µg/mL | MIC ([3]; E. coli W3110 60-r3): 0.024 µM and 0.0078 µg/mL | MIC ([3]; E. coli W3110 60-r6): 0.024 µM and 0.0078 µg/mL | MIC ([4]; BW25113, JW3594 ΔrfaD): > 0.048 µM | MIC [4, 9]: 0.024 µM (≈ 0.00795 µg/mL) | MIC ([4]; BW25113, JW3600 ΔrfaY): 0.024 µM (≈ 0.00795 µg/mL) | MIC ([4]; BW25113, JW3602 ΔrfaI): 0.024 µM (≈ 0.00795 µg/mL) | MIC ([4]; BW25113, JW3605 ΔrfaP): 0.048 µM (≈ 0.0159 µg/mL) | MIC ([4]; BW25113, JW5503 ΔTolC): 0.024 µM (≈ 0.00795 µg/mL) | MIC [4, 10]: 0.024 µM (≈ 0.00795 µg/mL)

O=S(=O)(NCCNCc1ccc(-c2ccc(F)nc2)cc1)c1cccc2cnccc12 [Compound 60]
MIC (A. baumannii ATCC BAA747; [11]): > 50 µM | MIC (P. aeruginosa ATCC 27853; [12]): > 50 µM | MIC [1, 13]: > 50 µM | MIC [1, 14]: > 50 µM | susceptibility of gyrA S97L mutant [2]: resistant | MIC [2, 5]: 50 µM (≈ 21.8 µg/mL) | MIC [2, 6]: 25 µM (≈ 10.9 µg/mL) | MIC [2, 7]: > 50 µM | MIC (E. coli ATCC 25922; [15]): 12.5 µM (≈ 5.46 µg/mL) | MIC ([3]; E. coli W3110 60-r1): > 100 µM | MIC ([3]; E. coli W3110 60-r3): 100 µM (≈ 43.7 µg/mL) | MIC ([3]; E. coli W3110 60-r6): > 100 µM | increase in MIC in resistant colonies ([3]; all nine colonies): at least an eightfold increase in MIC | MIC [4, 10]: 6.25 µM (≈ 2.73 µg/mL)

O=S(=O)(NC[C@@H]1CC[C@H](c2ccc(-c3ccc(F)cc3)cc2)N1)c1cccc2cnccc12 [Compound 101]
MIC (A. baumannii ATCC BAA747; [11]): 25 µM (≈ 11.5 µg/mL) | MIC (P. aeruginosa ATCC 27853; [12]): > 50 µM | MIC [1, 13]: > 50 µM | MIC [1, 14]: > 50 µM | susceptibility of gyrA S97L mutant [2]: resistant | MIC [2, 5]: 3.1 µM (≈ 1.43 µg/mL) | MIC [2, 6]: 3.1 µM (≈ 1.43 µg/mL) | MIC [2, 7]: > 50 µM | MIC (E. coli ATCC 25922; [15]): 3.1 µM (≈ 1.43 µg/mL) | MIC ([3]; E. coli W3110 60-r1): > 50 µM | MIC ([3]; E. coli W3110 60-r3): 6.25 µM (≈ 2.88 µg/mL) | MIC ([3]; E. coli W3110 60-r6): 3.1 µM (≈ 1.43 µg/mL) | MIC [4, 10]: 1.6 µM (≈ 0.738 µg/mL)

O=S(=O)(NC[C@@H]1CC[C@H](c2ccc(-c3cccnc3)cc2)N1)c1cccc2cnccc12 [LEI-800]
MIC (A. baumannii ATCC BAA747; [11]): 25 µM (≈ 11.1 µg/mL) | MIC (P. aeruginosa ATCC 27853; [12]): > 50 µM | MIC [1, 13]: > 50 µM | MIC [1, 14]: > 50 µM | susceptibility of gyrA S83L / D87N mutants [2]: did not affect the susceptibility | susceptibility of gyrA S97L mutant [2]: resistant | MIC [2, 5]: 6.25 µM (≈ 2.78 µg/mL) | MIC [2, 6]: 6.25 µM (≈ 2.78 µg/mL) | MIC [2, 7]: > 50 µM | MIC (E. coli ATCC 25922; [8]): 6.25 µM (≈ 2.78 µg/mL) | MIC ([3]; E. coli W3110 60-r1): > 50 µM | MIC ([3]; E. coli W3110 60-r3): 12.5 µM (≈ 5.56 µg/mL) | MIC ([3]; E. coli W3110 60-r6): 12.5 µM (≈ 5.56 µg/mL) | potency against ΔtolC efflux pump mutant [4]: No increase in potency | MIC ([4]; BW25113, JW3594 ΔrfaD): 0.4 µM (≈ 0.178 µg/mL) | MIC [4, 9]: 0.4 µM (≈ 0.178 µg/mL) | MIC ([4]; BW25113, JW3600 ΔrfaY): 1.6 µM (≈ 0.711 µg/mL) | MIC ([4]; BW25113, JW3602 ΔrfaI): 1.6 µM (≈ 0.711 µg/mL) | MIC ([4]; BW25113, JW3605 ΔrfaP): 0.4 µM (≈ 0.178 µg/mL) | MIC ([4]; BW25113, JW5503 ΔTolC): 3.1 µM (≈ 1.38 µg/mL) | MIC [4, 10]: 3.1 µM (≈ 1.38 µg/mL)

O=S(=O)(NC[C@H]1CC[C@@H](c2ccc(-c3ccc(F)nc3)cc2)N1)c1cccc2cnccc12 [LEI-801]
potency against ΔtolC efflux pump mutant [4]: No increase in potency | MIC ([4]; BW25113, JW3594 ΔrfaD): 3.1 µM (≈ 1.43 µg/mL) | MIC [4, 9]: 3.1 µM (≈ 1.43 µg/mL) | MIC ([4]; BW25113, JW3600 ΔrfaY): > 50 µM | MIC ([4]; BW25113, JW3602 ΔrfaI): > 50 µM | MIC ([4]; BW25113, JW3605 ΔrfaP): 12.5 µM (≈ 5.78 µg/mL) | MIC ([4]; BW25113, JW5503 ΔTolC): > 50 µM | MIC [4, 10]: > 50 µM
